Assay results as given in patent US20240398806A1, “Compositions For and Methods of Treating and/or Preventing Pain” (Duke University, priority 2021, published 2024).
Like-named read-outs stand apart in the source and are kept apart here.

Experiments:
NTSR1 [1] = target: T1, NTSR1 (Homo sapiens, UniProt P30989); assay: Gq protein activation / intracellular Ca++ (FIG. 5A); format: cell-based; parameters: expressed in transfected cells; host or cells: HEK293T cell membranes; details: unlike NT
Description: Preliminary studies provided significant data for this example. SBI-553 was derived from a medicinal chemistry campaign to improve the ML314 probe series and was selected for potency, pharmacokinetic profile, and selectivity for NTSR1 over the NTSR2 (Pinkerton A B, et al. (2019) J Med Chem. 62(17):8357-8363, which is incorporated by reference for its teachings of the making of SBI-553). […] Binding specificity to NTSR1 was further confirmed by comparing membranes containing an off-target receptor (i.e., b2-adrenergic receptor) (Slosky L M, et al. (2020) Cell. 181(6):1364-1379e14). […] These findings indicate that SBI-553 is a β-arrestin-biased ligand that stimulates β-arrestin-mediated processes at NTSR1 […] without activating Gq protein signaling (FIG. 5).
Target sequence in this assay (P30989 whole entry): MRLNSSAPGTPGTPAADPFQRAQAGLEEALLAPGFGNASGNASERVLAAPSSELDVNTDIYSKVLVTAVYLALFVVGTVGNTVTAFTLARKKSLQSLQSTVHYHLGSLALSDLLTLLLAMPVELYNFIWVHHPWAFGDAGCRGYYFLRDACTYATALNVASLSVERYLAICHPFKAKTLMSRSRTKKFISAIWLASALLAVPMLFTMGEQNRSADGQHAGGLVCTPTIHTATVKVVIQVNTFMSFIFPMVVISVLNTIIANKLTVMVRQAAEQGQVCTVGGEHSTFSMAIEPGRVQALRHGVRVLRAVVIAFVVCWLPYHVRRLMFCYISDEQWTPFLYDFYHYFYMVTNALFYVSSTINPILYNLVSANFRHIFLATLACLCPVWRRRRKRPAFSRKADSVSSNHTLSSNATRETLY

NTSR1 [2] = target: T1, NTSR1; assay: Confocal β-arrestin2 translocation assay in U2OS cells expressing NTSR1 and β-arrestin2-GFP; format: cell-based; parameters: expressed in transfected cells; also transient transfection; details: compared with NT
Procedure: Scale bar, […]. […] The ordinate axis in counts per minute (CPM) represents specifically bound ^125I-NT. In each experiment, the assays were conducted in quadruplicate, and data are expressed as the mean+SEM (n=4 separate experiments) and were analyzed using one-way ANOVA with Tukey's multiple comparison post hoc test. Curve fitting and statistical analyses were performed using GraphPad Prism V5.04.
The translocation of β-arrestin2 to the membrane by NTSR1 was assessed using a U2OS cell line permanently expressing the NTSR1 and green fluorescent protein (GFP) tagged-β-arrestin2, as described (Barak et al., 2016). Briefly, on day 1, stable cells were split into MGB101-1-2-LG glass-bottom 384-well plates (MatriCal, Spokane, WA, USA). Each well contained 30) mL aliquots of 8,000 cells in Minimum Eagle's medium (MEM) containing 10% fetal bovine serum (FBS) and 100 U/mL penicillin/streptomycin (Life Technologies, Grand Island, NY, USA). The plates were incubated overnight at 37°° C, in 5% CO2, and on the following day the media was changed to […] serum-and phenol red-free MEM. […] After treatment, plates were returned to the incubator for 40 min. […] Images were analyzed using a wavelet algorithm to measure formation of fluorescence aggregates (Evron et al., 2014). […] Analyzed image results were visually confirmed. […]
Target sequence in this assay (P30989 whole entry): as above
Target sequence in this assay (P32121 whole entry partner): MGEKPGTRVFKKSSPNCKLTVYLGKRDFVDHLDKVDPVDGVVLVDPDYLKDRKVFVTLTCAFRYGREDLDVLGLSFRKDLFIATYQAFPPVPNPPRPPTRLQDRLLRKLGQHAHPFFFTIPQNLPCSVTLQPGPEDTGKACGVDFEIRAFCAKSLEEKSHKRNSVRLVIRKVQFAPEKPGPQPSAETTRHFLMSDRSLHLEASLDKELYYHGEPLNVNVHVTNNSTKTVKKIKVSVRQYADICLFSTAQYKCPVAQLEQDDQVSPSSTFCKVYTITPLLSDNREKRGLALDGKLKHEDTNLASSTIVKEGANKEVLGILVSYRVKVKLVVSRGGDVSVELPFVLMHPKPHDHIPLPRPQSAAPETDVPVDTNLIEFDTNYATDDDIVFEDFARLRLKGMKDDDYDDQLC

NTSR1 [3] = target: T1, NTSR1; assay: Cellular assay of β-arrestin-2 translocation in cells expressing NTSR1; format: cell-based; parameters: expressed in transfected cells; host or cells: HEK293T cell membranes
Procedure: First, using cellular assays, whether IND candidates such as SBI-810 are similar or better than SBI-553 as β-arrestin biased agonist at NTSR1. is assessed. The chemical entities used in this work were synthesized and validated. However, routine validation of the profile of these compounds is performed routinely using both cellular and in vivo assays. For example, HEK293 cells that express either the NTSR1 or NTSR2 are used to assess the functional profile of the various chemical probes. In addition, a series of genetically engineered mouse lines are used to provide an in vivo validation of novel chemical entities for their abilities to module behaviors in these animals.
Fourth, cellular assays are used to establish that IND ready analogs like SBI-810 are still selective for the NTSR1 rather than NTSR2. The specificity of the lead compounds toward NTSR1. NTSR2. and β-arrestin-2 are tested in respective cellular assays. More specifically, cells expressing either NTSR1 or NTSR2 are used to assess the function of various compound. […] This translocation is not observed in cells expressing NTSR2.
Fourth, genetically engineered mice are used to assess the effects and mechanisms of novel ligands. The specificity of the lead compounds toward NTSR1, NTSR2, and β-arrestin-2 dependent signaling is examined. […]
Target sequence in this assay (P30989 whole entry): as the sequence (P30989 whole entry) above

[4] = Pharmacokinetics in monkey (IV and PO); format: in vivo; details: for AUC: monkey; for MRT last: read-out: MRT0-last
NTSR1 [5] = target: T1, NTSR1; assay: [3H]SBI-553 saturation binding to NTSR1-containing HEK293T cell membranes; parameters: expressed in transfected cells; host or cells: HEK293T cell membranes; details: below 400 nM
Target sequence in this assay (P30989 whole entry): as above

With `COc1ccccc1C1CCN(c2nc(C3(F)CC3)nc3ccc(N(C)CCO)cc23)CC1` [SBI-553] the “Activation of G protein Gq / intracellular Ca++” value (NTSR1 [1]) was “cannot activate the G protein Gq”, the “Intracellular translocation of β-arrestin” value (NTSR1 [2]) was “as effective as NT” and the “Translocation of β-arrestin-2 to intracellular compartments” value (NTSR1 [3]) was “demonstrate translocation of β-arrestin-2”. For the same compound, the Co ([4]; Monkey, IV 5 mg/kg) was 4572 ng/mL, the T2/2 ([4]; Monkey, IV 5 mg/kg) was 4.78 h and the CI ([4]; Monkey, PO 20 mg/kg) was 8 mL/min/kg. The Co ([4]; Monkey, PO 20 mg/kg) was 67.6 ng/mL, the Levels in plasma ([4]; following i.v. and p.o. dosing) was “good levels in plasma” and the AUC ([4]; plasma, iv, 5 mg/kg, Monkey, IV 5 mg/kg, read-out: AUCo-inf) was 4340 ng·h/mL. It also gave an AUC ([4]; plasma, iv, 5 mg/kg, Monkey, IV 5 mg/kg, read-out: AUCo-last) of 4280 ng·h/mL, an AUC ([4]; plasma, po, 20 mg/kg, Monkey, PO 20 mg/kg, read-out: AUCo-inf) of 864 ng·h/mL and an AUC ([4]; plasma, po, 20 mg/kg, Monkey, PO 20 mg/kg, read-out: AUCo-last) of 797 ng·h/mL. It also gave a clearance ([4]; plasma, Monkey, IV 5 mg/kg) of 19.2 mL/min/kg, an MRT last ([4]; plasma, Monkey, IV 5 mg/kg) of 2.3 h and a Vd ([4]; plasma, Monkey, IV 5 mg/kg, read-out: Vdss) of 3.1 L/kg. The half-life ([4]; plasma, Monkey, PO 20 mg/kg) was 8 h, the MRT last ([4]; plasma, Monkey, PO 20 mg/kg) was 11.9 h and the “Specific [3H]SBI-553 binding as share of total binding” value (NTSR1 [5]) was ~50%.
